Test results as given in ChEMBL document CHEMBL5465560, “Selectivity Literature for EUbOPEN Chemogenomic Library” (2024).

Key:
[1] = molecular target: Ephrin type-A receptor 5 (Homo sapiens) (UniProt P54756); assay: Selectivity interaction (KinomeScan (DiscoverX)) EUB0000655a EPHA5; details: at 10 µM
[2] = molecular target: Serine/threonine-protein kinase 25 (Homo sapiens) (UniProt O00506); assay: Selectivity interaction (KinomeScan (DiscoverX)) EUB0000618a STK25; details: at 10 µM
[3] = molecular target: Mitogen-activated protein kinase kinase kinase kinase 1 (Homo sapiens) (UniProt Q92918); assay: Selectivity interaction (ActivX KiNativ screen (ex vivo kinase selectivity in human PBMCs)) EUB0001619a MAP4K1; type: cell-based; details: PBMC, at 1 µM
Chain of Mitogen-activated protein kinase kinase kinase kinase 1 (Homo sapiens) (Q92918 whole entry, looked up): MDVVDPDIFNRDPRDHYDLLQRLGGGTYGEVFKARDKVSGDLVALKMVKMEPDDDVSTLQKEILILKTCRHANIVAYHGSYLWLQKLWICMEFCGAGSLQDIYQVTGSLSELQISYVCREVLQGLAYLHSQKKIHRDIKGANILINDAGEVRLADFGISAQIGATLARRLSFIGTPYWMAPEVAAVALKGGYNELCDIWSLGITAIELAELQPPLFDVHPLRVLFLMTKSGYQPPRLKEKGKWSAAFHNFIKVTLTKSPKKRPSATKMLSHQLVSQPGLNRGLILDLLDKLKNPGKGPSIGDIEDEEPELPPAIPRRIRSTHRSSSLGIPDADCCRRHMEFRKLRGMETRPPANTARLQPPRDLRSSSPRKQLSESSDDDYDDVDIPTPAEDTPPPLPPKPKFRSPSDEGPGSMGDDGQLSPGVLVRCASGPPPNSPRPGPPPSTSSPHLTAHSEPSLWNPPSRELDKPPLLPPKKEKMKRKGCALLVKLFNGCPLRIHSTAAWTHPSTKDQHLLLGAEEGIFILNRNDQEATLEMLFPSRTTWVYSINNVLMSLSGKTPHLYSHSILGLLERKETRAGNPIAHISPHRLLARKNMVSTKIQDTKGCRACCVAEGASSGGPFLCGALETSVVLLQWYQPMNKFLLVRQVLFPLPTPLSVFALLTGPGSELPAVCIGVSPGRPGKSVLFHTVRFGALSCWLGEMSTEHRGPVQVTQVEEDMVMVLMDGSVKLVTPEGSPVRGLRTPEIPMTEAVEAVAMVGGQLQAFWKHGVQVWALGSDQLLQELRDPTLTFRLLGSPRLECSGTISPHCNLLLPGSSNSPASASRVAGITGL

[4] = molecular target: T1, Serine/threonine-protein kinase STK11 (Homo sapiens) (UniProt Q15831); assay: Selectivity interaction (Upstate Kinase Profiler service (Millipore)) EUB0000056c STK11; details: at 1 µM
T1 sequence (whole entry): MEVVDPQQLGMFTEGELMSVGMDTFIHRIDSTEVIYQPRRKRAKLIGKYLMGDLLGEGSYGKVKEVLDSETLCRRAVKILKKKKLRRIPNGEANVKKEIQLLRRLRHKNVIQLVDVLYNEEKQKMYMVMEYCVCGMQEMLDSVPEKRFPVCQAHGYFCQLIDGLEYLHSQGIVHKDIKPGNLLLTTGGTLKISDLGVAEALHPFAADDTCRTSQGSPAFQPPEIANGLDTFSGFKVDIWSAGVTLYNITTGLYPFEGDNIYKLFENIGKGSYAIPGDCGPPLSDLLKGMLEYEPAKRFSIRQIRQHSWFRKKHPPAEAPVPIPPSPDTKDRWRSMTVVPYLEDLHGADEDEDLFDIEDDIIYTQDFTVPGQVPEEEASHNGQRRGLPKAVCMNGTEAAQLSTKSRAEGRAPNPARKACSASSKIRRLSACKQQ

[5] = molecular target: Dual specificity protein kinase CLK1 (Homo sapiens, UniProt P49759); details: at 10 µM
Chain of Dual specificity protein kinase CLK1 (P49759 whole entry, looked up): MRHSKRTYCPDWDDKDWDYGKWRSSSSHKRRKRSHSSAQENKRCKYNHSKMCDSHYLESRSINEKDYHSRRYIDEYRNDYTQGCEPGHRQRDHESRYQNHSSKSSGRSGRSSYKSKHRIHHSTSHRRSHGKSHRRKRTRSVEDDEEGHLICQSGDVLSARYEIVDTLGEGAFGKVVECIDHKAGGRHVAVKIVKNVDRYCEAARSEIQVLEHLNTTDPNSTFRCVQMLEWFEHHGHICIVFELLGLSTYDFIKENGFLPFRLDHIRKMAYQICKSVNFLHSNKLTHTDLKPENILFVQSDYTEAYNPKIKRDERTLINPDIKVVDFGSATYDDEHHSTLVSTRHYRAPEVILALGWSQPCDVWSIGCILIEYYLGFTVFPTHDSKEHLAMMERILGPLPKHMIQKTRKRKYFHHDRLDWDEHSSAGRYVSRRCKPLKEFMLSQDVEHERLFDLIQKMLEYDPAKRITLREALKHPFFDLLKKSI

[6] = molecular target: T2, Phosphatidylinositol 5-phosphate 4-kinase type-2 alpha (Homo sapiens) (UniProt P48426); assay: Selectivity interaction (ActivX KiNativ screen (kinase selectivity in THP-1 cell lysates)) EUB0000639a PIP4K2A; type: subcellular; details: lysate
T2 sequence (whole entry): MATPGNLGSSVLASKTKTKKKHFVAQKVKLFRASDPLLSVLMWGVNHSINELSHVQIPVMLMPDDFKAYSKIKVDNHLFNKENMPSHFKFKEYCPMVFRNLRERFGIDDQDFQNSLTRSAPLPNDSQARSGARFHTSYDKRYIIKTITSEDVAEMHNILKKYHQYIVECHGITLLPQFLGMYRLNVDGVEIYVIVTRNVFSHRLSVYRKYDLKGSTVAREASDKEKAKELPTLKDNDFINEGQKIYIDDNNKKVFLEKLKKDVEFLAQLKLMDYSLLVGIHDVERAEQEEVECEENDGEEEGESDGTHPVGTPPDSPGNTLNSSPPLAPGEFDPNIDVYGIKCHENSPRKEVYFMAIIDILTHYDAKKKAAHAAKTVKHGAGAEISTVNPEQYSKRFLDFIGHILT

[7] = molecular target: T3, Serine/threonine-protein kinase D2 (Homo sapiens) (UniProt Q9BZL6); assay: Selectivity interaction (KinomeScan (DiscoverX)) EUB0000229b PRKD2; details: at 10 µM
T3 sequence (whole entry): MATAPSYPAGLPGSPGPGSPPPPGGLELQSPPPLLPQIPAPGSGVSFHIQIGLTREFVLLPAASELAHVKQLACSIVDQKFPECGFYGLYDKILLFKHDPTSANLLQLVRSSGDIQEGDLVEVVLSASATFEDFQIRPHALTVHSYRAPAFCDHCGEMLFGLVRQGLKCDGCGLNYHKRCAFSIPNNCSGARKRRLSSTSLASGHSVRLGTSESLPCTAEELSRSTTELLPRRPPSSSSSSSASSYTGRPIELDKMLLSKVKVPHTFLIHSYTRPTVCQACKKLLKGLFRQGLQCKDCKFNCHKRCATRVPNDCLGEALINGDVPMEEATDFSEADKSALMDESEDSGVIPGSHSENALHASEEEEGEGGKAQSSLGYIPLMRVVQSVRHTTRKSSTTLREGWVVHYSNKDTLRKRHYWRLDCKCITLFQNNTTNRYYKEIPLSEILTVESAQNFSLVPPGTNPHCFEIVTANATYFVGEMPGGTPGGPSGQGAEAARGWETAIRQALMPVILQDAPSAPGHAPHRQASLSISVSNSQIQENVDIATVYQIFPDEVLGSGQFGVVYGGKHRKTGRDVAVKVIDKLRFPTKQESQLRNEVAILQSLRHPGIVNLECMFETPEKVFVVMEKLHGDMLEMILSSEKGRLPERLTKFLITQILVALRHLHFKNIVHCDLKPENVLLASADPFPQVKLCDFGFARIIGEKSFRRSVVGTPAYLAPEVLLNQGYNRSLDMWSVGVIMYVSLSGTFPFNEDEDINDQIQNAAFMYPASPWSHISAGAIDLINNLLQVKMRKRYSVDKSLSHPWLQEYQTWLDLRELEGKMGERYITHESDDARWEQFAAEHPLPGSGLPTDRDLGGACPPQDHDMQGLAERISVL

[8] = test system: Epidermal growth factor receptor (Homo sapiens), P00533 [G719S]; assay: (§1) Selectivity interaction (KinomeScan (DiscoverX)) EUB0000229b EGFR; details: at 1 µM
Chain of Epidermal growth factor receptor (Homo sapiens), P00533 [G719S] (P00533 whole entry G719S): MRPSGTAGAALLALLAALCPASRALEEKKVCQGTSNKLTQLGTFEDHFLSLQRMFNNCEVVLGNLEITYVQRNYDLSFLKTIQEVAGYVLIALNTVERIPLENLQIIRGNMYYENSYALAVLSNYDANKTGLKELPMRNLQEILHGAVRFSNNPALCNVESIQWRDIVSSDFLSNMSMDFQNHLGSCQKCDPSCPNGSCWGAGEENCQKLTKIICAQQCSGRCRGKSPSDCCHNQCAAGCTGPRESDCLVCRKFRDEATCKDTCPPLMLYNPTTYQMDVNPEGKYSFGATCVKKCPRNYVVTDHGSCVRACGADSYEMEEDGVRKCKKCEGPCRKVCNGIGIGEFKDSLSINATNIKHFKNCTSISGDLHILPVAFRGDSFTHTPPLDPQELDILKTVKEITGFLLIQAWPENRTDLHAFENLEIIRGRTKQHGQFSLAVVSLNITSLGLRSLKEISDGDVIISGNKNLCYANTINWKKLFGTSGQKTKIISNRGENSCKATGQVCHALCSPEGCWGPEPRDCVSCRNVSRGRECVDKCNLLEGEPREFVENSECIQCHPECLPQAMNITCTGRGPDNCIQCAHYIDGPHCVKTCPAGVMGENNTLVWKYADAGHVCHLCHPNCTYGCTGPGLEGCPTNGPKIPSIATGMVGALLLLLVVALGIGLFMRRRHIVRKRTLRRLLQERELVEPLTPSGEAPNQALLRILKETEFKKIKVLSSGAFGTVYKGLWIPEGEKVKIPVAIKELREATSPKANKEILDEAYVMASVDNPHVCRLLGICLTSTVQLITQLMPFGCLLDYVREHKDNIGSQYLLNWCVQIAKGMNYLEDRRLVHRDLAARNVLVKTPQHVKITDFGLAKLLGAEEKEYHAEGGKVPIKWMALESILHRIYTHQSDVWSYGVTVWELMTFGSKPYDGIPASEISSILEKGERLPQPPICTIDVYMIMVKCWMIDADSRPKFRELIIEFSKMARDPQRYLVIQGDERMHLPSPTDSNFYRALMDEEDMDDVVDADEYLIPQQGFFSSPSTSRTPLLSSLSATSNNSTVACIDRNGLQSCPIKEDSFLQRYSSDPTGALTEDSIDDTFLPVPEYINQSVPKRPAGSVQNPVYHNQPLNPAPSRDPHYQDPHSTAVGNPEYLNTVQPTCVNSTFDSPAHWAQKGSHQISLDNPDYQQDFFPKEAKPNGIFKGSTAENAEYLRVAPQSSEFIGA

[9] = test system: Epidermal growth factor receptor (Homo sapiens), P00533 [L858R,T790M]; assay: as §1; details: at 1 µM
[10] = test system: Epidermal growth factor receptor (Homo sapiens), P00533 [L861Q]; assay: as §1; details: at 1 µM
[11] = molecular target: Epidermal growth factor receptor (Homo sapiens, UniProt P00533); assay: as §1; details: at 10 µM
[12] = test system: Epidermal growth factor receptor (Homo sapiens), P00533 [UNDEFINED MUTATION]; assay: as §1; details: at 1 µM
[13] = test system: Epidermal growth factor receptor (Homo sapiens), P00533 [T790M]; assay: as §1; details: at 1 µM
[14] = test system: Epidermal growth factor receptor (Homo sapiens), P00533 [L858R]; assay: as §1; details: at 1 µM
[15] = test system: Epidermal growth factor receptor (Homo sapiens), P00533 [G719C]; assay: as §1; details: at 1 µM
Chain of Epidermal growth factor receptor (Homo sapiens), P00533 [G719C] (P00533 whole entry G719C): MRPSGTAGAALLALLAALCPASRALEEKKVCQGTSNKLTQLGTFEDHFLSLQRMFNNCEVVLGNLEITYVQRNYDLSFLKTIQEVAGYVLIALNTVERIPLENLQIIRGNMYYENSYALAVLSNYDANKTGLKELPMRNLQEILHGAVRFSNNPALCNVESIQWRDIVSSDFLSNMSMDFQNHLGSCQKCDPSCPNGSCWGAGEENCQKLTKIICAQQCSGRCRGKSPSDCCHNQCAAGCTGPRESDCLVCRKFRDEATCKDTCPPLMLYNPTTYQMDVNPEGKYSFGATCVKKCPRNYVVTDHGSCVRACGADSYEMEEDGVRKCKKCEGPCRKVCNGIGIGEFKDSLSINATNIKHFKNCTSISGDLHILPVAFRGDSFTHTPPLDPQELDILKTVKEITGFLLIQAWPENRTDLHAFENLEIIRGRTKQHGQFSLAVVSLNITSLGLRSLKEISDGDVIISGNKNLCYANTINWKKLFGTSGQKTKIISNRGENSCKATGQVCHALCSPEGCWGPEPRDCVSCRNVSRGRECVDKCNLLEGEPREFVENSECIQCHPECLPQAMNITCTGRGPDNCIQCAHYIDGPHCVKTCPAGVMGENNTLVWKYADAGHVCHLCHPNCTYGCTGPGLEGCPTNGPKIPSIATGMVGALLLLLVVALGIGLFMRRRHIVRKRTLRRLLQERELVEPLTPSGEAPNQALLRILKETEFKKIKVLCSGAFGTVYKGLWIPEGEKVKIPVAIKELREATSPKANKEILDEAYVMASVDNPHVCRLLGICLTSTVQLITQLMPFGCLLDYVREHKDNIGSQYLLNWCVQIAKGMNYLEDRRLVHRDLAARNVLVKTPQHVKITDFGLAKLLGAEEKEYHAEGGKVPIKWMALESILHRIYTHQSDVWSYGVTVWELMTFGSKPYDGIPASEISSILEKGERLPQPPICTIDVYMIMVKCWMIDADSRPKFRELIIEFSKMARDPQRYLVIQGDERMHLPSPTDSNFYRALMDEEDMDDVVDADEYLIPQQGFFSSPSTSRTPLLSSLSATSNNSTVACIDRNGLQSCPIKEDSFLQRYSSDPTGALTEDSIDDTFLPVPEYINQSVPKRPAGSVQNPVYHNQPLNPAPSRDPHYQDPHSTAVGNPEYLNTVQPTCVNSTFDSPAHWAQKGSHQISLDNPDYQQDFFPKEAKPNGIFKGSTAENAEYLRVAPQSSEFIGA

[16] = molecular target: Mitogen-activated protein kinase 11 (Homo sapiens) (UniProt Q15759); assay: Selectivity interaction (KinomeScan (DiscoverX)) EUB0000666a MAPK11; details: at 10 µM
[17] = molecular target: Mitogen-activated protein kinase kinase kinase kinase 1 (Homo sapiens) (UniProt Q92918); assay: Selectivity interaction (KinomeScan (DiscoverX)) EUB0000666a MAP4K1; details: at 10 µM
[18] = molecular target: Tyrosine-protein kinase Lck (Homo sapiens, UniProt P06239); assay: Selectivity interaction (KinomeScan (DiscoverX)) EUB0000092b LCK; details: at 10 µM
[19] = molecular target: Death-associated protein kinase 1 (Homo sapiens, UniProt P53355); assay: Selectivity interaction (KinomeScan (DiscoverX)) EUB0000092b DAPK1; details: at 10 µM
[20] = molecular target: Calcium/calmodulin-dependent protein kinase kinase 1 (Homo sapiens) (UniProt Q8N5S9); assay: Selectivity interaction (KinomeScan (DiscoverX)) EUB0000092b CAMKK1; details: at 10 µM
[21] = molecular target: T3, Serine/threonine-protein kinase D2 (Homo sapiens); assay: Selectivity interaction (Kinase panel (Z-LYTE Assay)) EUB0001632a PRKD2; details: at 10 µM

Chain of Ephrin type-A receptor 5 (Homo sapiens) (P54756 whole entry): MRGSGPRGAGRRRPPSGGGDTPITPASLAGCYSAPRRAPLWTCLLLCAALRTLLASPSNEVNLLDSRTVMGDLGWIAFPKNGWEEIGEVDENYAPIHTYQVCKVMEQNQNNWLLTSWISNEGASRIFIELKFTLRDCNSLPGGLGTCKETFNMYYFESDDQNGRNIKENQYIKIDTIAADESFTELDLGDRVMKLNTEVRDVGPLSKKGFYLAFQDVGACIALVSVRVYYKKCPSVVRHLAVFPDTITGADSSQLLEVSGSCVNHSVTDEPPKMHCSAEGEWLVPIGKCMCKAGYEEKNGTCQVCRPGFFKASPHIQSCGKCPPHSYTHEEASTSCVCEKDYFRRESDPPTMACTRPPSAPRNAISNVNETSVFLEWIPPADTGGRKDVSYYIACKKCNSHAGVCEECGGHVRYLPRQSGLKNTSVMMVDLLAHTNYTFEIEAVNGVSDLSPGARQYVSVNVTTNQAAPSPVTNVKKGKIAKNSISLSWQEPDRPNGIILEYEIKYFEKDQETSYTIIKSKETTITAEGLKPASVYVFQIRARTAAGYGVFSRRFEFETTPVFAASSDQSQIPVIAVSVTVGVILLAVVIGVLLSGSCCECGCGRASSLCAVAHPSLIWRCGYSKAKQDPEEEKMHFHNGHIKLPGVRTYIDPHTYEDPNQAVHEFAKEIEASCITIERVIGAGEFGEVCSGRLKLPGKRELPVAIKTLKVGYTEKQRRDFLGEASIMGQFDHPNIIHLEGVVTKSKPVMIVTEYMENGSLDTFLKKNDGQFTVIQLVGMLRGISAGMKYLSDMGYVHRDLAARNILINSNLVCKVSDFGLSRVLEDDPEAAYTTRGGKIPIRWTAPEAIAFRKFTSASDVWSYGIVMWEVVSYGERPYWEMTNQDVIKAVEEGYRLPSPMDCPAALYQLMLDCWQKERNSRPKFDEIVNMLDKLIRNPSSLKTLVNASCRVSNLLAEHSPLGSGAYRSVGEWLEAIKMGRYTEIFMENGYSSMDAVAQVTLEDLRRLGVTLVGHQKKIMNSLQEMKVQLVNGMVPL

## CN(C)CCOc1ccc(-c2nc(-c3ccncc3)c(-c3ccc4c(c3)CC/C4=N\O)[nH]2)cc1
[1]
  % of control: 99%

## O[C@H]1CC[C@H](Nc2ncc3nc(Nc4c(F)cc(F)cc4F)n([C@H]4CCOC4)c3n2)CC1
[2]
  % of control: 64%

## N#Cc1cccc(-c2c[nH]c3ncnc(N4CCOCC4)c23)c1
[3]
  % of inhibition: 26%

## Cc1ccc(-c2ccc3c(ccc4sc5c(c43)NC[C@@H](C)NC5=O)n2)cn1
[4]
  % of inhibition: -15%

## Cc1cc([C@@H](C)Nc2ccccc2C(=O)O)c2nc(N3CCOCC3)cc(=O)n2c1 [AZD-6482]
[5]
  % of control: 74%

## CC[C@@H]1[C@H](F)C(=O)N[C@@H]1COc1nccc2cc(C(N)=O)c(OC)cc12 [ZIMLOVISERTIB]
[6]; at 0.01 µM
  % of inhibition: -3.1%
[6]; at 0.04 µM
  % of inhibition: 1.9%
[6]; at 0.2 µM
  % of inhibition: -7.7%
[6]; at 1 µM
  % of inhibition: -0.6%
[6]; at 5 µM
  % of inhibition: -9%

## COc1cc(N(C)c2ccnc3ccc(C(F)(F)F)cc23)cc(OC)c1OC
[7]
  % binding: 90%
[8]
  % binding: 92%
[9]
  % binding: 86%
[10]
  % binding: 97%
[11]
  % binding: 96%
[12]
  % binding: 84%
[13]
  % binding: 100%
[14]
  % binding: 99%
[15]
  % binding: 92%

## O=C(NOC[C@H](O)CO)c1ccc(F)c(F)c1Nc1ccc(I)cc1F
[16]
  % of control: 100%
[17]
  % of control: 77%

## CCC(=O)N1CCN(c2ccc(-n3c(=O)ccc4cnc5ccc(-c6cnc7ccccc7c6)cc5c43)cc2C(F)(F)F)CC1
[18]
  % of control: 77%
[19]
  % of control: 96%
[20]
  % of control: 80%

## Cn1cc(-n2cnc3c(NCc4nc5cc(Cl)c(Cl)cc5[nH]4)nc(N4CCOCC4)nc32)cn1
[21]
  % of control: 0.629%
